Results taken from patent US11376307B2, “Compositions and methods of treating cancer with glycomimetic peptides” (SUSAVION BIOSCIENCES, INC., priority 2018, dated 2022).
Positions of bridges follow the written chain, without caps; N, C: chain ends. Chains are numbered I, II in the order given.

Columns and labels:
human ASGPR-1 = target: T1, human ASGPR-1 (Homo sapiens, UniProt P07306); test: Solid-phase binding assay with recombinant receptors; details: biotinylated tetravalent peptide
T1 construct: The extracellular domains of receptors, which were fused with the Fc domain of immunoglobulin IgG; purchased R&D Systems
T1 sequence (P07306 62-291 limits assumed): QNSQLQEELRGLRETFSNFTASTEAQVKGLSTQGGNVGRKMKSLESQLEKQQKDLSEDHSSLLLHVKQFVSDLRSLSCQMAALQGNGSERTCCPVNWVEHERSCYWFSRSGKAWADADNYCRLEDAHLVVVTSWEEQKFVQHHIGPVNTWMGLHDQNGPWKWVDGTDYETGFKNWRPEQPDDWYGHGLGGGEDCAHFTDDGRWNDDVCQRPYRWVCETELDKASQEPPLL
Method: (§1) Binding Assays Solid-phase binding assays were performed with streptavidin-, protein A/G-, or Nickel-coated microtiter plates (Pierce). His-tagged or Fc-fusion recombinant receptors (R&D Systems, Minneapolis, Minn.) were reconstituted in PBS. Sufficient receptors were added to wells to saturate the coating. His-tagged receptors were added to each well at a 5-fold excess over the stated capacity of the Ni coating to minimize non-specific binding of the peptide. Wells were washed three times with binding buffer (25 mM Tris HCl, pH 7.4, 150 mM NaCl, 0.05% Tween-20) to remove unbound receptor and 50 μL of 2 μM biotinylated peptide in binding buffer were added and allowed to incubate for 1 h. The wells were washed four times with binding buffer and then incubated with 50 μL of 1 μg/mL streptavidin conjugated with peroxidase (Sigma-Aldrich) for 1 h. The wells were washed five times with binding buffer and 50 μL of peroxidase substrate (1-Step™ Ultra TMB, Pierce) were added. After several minutes to allow color development, the reaction was stopped with 50 μL 1 M H3PO4 and absorbance was measured at 450 nm. Bound streptavidin was quantitated by the specific activity of peroxidase (absorbance/ng protein conjugate/min) under the conditions of the assay.
(§2) Solid-phase binding assays were performed with recombinant human receptors. Three variations of the binding assay were used in this study, all of which allowed the arms of the tetravalent peptide to have full flexibility. (i) Biotinylated peptide was bound in microtiter wells coated with streptavidin and incubated with recombinant human receptors. After extensive washing, the bound receptor was measured by peroxidase conjugated to a receptor-specific antibody. (ii) The extracellular domains of receptors, which were fused with the Fc domain of immunoglobulin IgG, were bound in wells coated with protein A/G. Biotinylated peptide was incubated with the receptors and, after extensive washing, bound peptide was measured with streptavidin conjugated with peroxidase. Or (iii), recombinant receptors with a poly-His tag were bound to Nickel-coated wells and incubated with biotinylated peptide. svL4 and sv6D contain His residues (FIGS. 1A, 1C) and can bind to the Ni coating, which was minimized by adding sufficient poly-His-tagged receptor to saturate the Ni coating.

[1] = target: T2, recombinant human CLEC10A (Homo sapiens, UniProt Q8IUN9); test: as above; details: for Binding to CLEC10A: biotinylated tetravalent peptide
T2 construct: The extracellular domains of receptors, which were fused with the Fc domain of immunoglobulin IgG; purchased R&D Systems
T2 sequence (Q8IUN9 61-316 limits assumed): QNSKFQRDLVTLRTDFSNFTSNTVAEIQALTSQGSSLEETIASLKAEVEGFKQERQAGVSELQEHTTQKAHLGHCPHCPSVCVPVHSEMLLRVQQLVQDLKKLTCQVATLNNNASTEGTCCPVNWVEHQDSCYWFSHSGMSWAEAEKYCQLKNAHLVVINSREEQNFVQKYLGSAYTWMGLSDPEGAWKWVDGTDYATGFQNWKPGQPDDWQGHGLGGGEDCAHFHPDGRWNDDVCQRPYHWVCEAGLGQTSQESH
Method: as §1, §2

CD44 = target: T3, CD44 (Homo sapiens, UniProt P16070); test: Solid-phase binding assay, survey of other receptors
T3 construct: The extracellular domains of receptors, which were fused with the Fc domain of immunoglobulin IgG; purchased R&D Systems
T3 sequence (P16070 21-220 limits assumed): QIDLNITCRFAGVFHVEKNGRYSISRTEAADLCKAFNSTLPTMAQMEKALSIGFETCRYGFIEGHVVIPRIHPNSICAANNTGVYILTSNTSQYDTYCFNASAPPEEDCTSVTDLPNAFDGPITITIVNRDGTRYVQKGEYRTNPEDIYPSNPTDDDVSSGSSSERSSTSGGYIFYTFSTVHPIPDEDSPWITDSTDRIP
Method: as §1, §2
(§3) Of the receptors we have assayed thus far, the peptides bound to those specific for GalNAc, which included CLEC4F, a GalNAc-binding receptor expressed by Kupffer cells that is also homologous to ASGPR-1 [50].

CLEC9A = target: T4, CLEC9A (Homo sapiens, UniProt Q6UXN8); test: as above
T4 construct: The extracellular domains of receptors, which were fused with the Fc domain of immunoglobulin IgG; purchased R&D Systems
T4 sequence (Q6UXN8 57-241 limits assumed): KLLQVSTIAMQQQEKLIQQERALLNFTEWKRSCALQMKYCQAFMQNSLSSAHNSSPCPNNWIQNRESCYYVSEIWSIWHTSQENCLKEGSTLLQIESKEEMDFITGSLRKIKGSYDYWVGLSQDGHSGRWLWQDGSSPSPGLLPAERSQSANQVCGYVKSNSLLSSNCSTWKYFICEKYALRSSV
Method: as §1, §2, §3

DC-SIGN = target: T5, DC-SIGN (Homo sapiens, UniProt Q9NNX6); test: as above
T5 construct: The extracellular domains of receptors, which were fused with the Fc domain of immunoglobulin IgG; purchased R&D Systems
T5 sequence (Q9NNX6 59-404 limits assumed): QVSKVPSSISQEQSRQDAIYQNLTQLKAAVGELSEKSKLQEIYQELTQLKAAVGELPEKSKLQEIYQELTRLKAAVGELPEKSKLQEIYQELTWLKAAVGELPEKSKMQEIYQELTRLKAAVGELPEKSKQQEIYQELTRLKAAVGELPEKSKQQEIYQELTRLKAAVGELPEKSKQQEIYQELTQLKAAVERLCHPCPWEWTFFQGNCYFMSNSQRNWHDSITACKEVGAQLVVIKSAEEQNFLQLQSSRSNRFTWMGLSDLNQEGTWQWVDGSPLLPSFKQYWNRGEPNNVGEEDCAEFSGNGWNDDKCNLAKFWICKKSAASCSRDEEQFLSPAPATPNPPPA
Method: as §1, §2, §3

IL-4R = target: T6, IL-4R (Homo sapiens, UniProt P24394); test: as above
T6 construct: The extracellular domains of receptors, which were fused with the Fc domain of immunoglobulin IgG; purchased R&D Systems
T6 sequence (P24394 26-232 limits assumed): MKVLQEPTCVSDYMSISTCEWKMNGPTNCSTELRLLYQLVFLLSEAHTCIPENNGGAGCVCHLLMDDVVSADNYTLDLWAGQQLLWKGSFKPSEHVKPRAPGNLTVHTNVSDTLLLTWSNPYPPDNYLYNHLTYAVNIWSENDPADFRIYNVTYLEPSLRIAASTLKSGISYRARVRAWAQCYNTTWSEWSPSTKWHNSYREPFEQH
Method: as §1, §2, §3

Siglec-1 = target: T7, Siglec-1 (Homo sapiens, UniProt Q9BZZ2); test: as above
T7 construct: The extracellular domains of receptors, which were fused with the Fc domain of immunoglobulin IgG; purchased R&D Systems
T7 sequence (Q9BZZ2 20-1641 limits assumed): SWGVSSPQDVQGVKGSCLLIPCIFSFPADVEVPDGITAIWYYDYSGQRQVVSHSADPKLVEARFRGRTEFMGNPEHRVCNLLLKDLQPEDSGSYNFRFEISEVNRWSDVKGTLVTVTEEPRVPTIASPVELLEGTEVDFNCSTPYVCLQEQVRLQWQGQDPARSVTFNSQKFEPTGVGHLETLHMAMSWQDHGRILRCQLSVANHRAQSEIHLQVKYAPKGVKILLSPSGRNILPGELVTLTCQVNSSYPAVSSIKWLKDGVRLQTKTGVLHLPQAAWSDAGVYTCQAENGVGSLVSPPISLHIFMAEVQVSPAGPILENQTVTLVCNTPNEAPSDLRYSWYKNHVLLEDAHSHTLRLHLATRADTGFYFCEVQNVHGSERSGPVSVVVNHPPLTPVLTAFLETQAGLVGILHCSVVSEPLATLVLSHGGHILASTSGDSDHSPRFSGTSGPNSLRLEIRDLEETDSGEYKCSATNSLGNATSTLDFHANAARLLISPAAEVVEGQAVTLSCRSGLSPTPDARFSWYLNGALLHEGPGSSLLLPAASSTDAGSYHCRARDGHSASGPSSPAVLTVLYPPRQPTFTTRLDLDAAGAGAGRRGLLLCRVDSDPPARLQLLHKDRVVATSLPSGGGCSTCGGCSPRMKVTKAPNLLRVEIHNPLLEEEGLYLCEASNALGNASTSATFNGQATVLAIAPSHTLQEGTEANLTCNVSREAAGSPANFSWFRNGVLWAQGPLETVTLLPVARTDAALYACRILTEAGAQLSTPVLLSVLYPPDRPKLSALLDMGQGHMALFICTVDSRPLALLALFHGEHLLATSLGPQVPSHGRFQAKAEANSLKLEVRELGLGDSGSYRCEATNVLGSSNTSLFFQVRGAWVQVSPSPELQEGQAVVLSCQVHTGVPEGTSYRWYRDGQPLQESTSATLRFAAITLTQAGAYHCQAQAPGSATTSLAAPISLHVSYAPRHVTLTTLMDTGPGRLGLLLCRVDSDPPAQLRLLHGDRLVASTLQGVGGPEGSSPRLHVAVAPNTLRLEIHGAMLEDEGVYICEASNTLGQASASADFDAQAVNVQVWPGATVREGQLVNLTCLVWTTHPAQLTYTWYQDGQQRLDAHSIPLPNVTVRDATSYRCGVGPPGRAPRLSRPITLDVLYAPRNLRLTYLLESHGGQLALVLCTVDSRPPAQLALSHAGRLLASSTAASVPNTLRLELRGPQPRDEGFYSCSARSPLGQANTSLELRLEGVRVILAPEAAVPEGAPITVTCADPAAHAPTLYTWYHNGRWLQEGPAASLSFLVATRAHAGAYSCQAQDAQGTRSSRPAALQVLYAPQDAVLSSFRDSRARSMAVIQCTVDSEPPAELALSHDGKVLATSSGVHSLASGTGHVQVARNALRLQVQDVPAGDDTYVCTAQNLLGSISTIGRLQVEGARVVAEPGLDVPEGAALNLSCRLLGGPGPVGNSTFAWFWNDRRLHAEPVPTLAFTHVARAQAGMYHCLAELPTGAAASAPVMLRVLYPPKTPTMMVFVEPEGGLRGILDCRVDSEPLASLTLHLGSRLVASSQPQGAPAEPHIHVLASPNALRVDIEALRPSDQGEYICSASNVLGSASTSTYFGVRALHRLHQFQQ
Method: as §1, §2, §3

CLEC4F = test: as above; parameters: species or system human
Method: as §1, with “The wells were washed five times with binding buffer and 50 μL of peroxidase substrate (1-Step™ Ultra TMB, Pierce) were added.” left out
Solid-phase binding assays were performed with recombinant human receptors. […] After extensive washing, the bound receptor was measured by peroxidase conjugated to a receptor-specific antibody. […]

Substance: I: H-NQHTPRGGGSKK-NH2 / II: H-NQHTPRGGGSK / III: H-NQHTPRGGGS / IV: H-NQHTPRGGGS (amide I:11-IV:C, I:12-II:C, II:11-III:C) [sv6D]
- Binding to ASGPR-1 (human ASGPR-1): bound as strongly as the full-length sequence
- Binding to CLEC10A [1]: bound as strongly as the full-length sequence
- Ca2+ dependence of binding ([1]; chelation of Ca2+ with low concentrations of EGTA, CLEC10A and ASGPR-1): requires Ca^2+
- Binding to CD44 (CD44): not detected
- Binding to CLEC9A (CLEC9A): did not bind significantly
- Binding to DC-SIGN (DC-SIGN): did not bind significantly
- Binding to IL-4R (IL-4R): not detected
- Binding to Siglec-1 (Siglec-1): did not bind significantly
- Binding to CLEC4F (CLEC4F): bound

Substance: I: H-VQATQSNQHTPRGGGSKK-NH2 / II: H-VQATQSNQHTPRGGGSK / III: H-VQATQSNQHTPRGGGS / IV: H-VQATQSNQHTPRGGGS (amide I:17-IV:C, I:18-II:C, II:17-III:C) [svL4]
- Binding to ASGPR-1 (human ASGPR-1): bound
- Binding to CLEC10A [1]: bound
- Binding to CD44 (CD44): not detected
- Binding to CLEC9A (CLEC9A): did not bind significantly
- Binding to DC-SIGN (DC-SIGN): did not bind significantly
- Binding to IL-4R (IL-4R): not detected
- Binding to Siglec-1 (Siglec-1): did not bind significantly
- Binding to CLEC4F (CLEC4F): bound
